The values below come from ChEMBL document CHEMBL1201862, “PubChem BioAssay data set” (2004).

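Protocol summary: plate cells (96-well), add compound at 5 concentrations, incubate 48 h, interpolate endpoints linearly. GI50: concentration for 50% inhibition of growth.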 Activity calls are given as the source filed them. Rule as the data show it: active = GI50 up to about 1.1 µM and inactive = higher.

Test systems include 786-0; A498; CCRF-CEM; EKVX; HCT-15; HL-60; HOP-62; HT-29; LOX IMVI; MOLT-4; Malme-3M; OVCAR-3; OVCAR-8; SF-295; SN12C; SR; SW-620; HOP-92.
What all share (test): NCI tumour cell line growth inhibition, 48 h

As to `N#CC1CC2(C(=O)C1=O)c1ccccc1-c1ccccc12` (centres undefined), the GI50 in the assay with 786-0 was > 100 µM (inactive); in the assay with A498 it was > 100 µM (inactive); with CCRF-CEM it was 67.5 µM (inactive); with EKVX, > 100 µM (inactive); with HCT-15, above 100 µM; in the assay with HL-60 it was > 100 µM (inactive). Further, the GI50 with HOP-62 was > 100 µM (inactive); in the assay with HT-29, > 100 µM (inactive); with LOX IMVI, > 100 µM (inactive); in the assay on MOLT-4 it was > 100 µM (inactive); in the assay on Malme-3M it was > 100 µM (inactive); in the assay with OVCAR-3, 87.7 µM (inactive). Further, the GI50 with OVCAR-8, with SF-295, in the assay with SN12C, in the assay with SR and in the assay on SW-620 was > 100 µM (inactive) in each case.

Take `COC1(C)C(=O)N2C1N(C(=O)OC(C)(C)C)CC2(C)C` (centres undefined): the GI50 with 786-0 is > 100 µM (inactive); in the assay with A498, > 100 µM (inactive); in the assay with CCRF-CEM, > 100 µM (inactive); with EKVX, > 100 µM (inactive); in the assay on HCT-15, 63.2 µM; in the assay with HL-60, > 100 µM (inactive). Besides, the GI50 was > 100 µM (inactive) with HOP-62; > 100 µM (inactive) with HOP-92; > 100 µM (inactive) with HT-29; 23.5 µM (inactive) in the assay with LOX IMVI; > 100 µM (inactive) with MOLT-4; > 100 µM (inactive) in the assay on Malme-3M. The GI50 with OVCAR-3 is > 100 µM (inactive); in the assay on OVCAR-8 it was > 100 µM (inactive); with SF-295, > 100 µM (inactive); with SN12C, > 100 µM (inactive); with SW-620, 17.5 µM (inactive).

On to `COc1ccc(Nc2nc3c(N)cc(C(F)(F)F)cc3nc2-c2ccccc2)cc1`, for which the GI50 was 35.6 µM (inactive) in the assay with 786-0; > 100 µM (inactive) with A498; > 100 µM (inactive) in the assay with CCRF-CEM; 61.9 µM (inactive) in the assay on EKVX; above 100 µM in the assay with HCT-15; 16.9 µM (inactive) with HL-60. Moreover, the GI50 in the assay on HOP-62 was 83.2 µM (inactive); in the assay on HOP-92 it was 37.6 µM (inactive); in the assay on LOX IMVI, > 100 µM (inactive); in the assay with MOLT-4, > 100 µM (inactive); in the assay on Malme-3M, 78.3 µM (inactive); in the assay with OVCAR-3 it was 33.6 µM (inactive). Also, the GI50 with OVCAR-8 was > 100 µM (inactive); in the assay with SF-295, 71.3 µM (inactive); in the assay with SN12C it was > 100 µM (inactive); in the assay with SR it was 21.9 µM (inactive); in the assay with SW-620, > 100 µM (inactive).

On to `O=C(COC(=O)c1cccc2c(=O)c3ccccc3[nH]c12)Nc1ccc(Cl)cc1`, for which the GI50 in the assay with 786-0 is 23.1 µM (inactive); in the assay on A498, 7.96 µM (inactive); in the assay with CCRF-CEM, 54 µM (inactive); with EKVX it was 8.28 µM (inactive); in the assay on HL-60, 11.6 µM (inactive); in the assay on HOP-62 it was 22.1 µM (inactive). Further, the GI50 with HOP-92 is 58.9 µM (inactive); in the assay on HT-29 it was 67.9 µM (inactive); in the assay on LOX IMVI it was 23.2 µM (inactive); with MOLT-4, 26.3 µM (inactive); in the assay on Malme-3M, > 100 µM (inactive); in the assay on OVCAR-3 it was > 100 µM (inactive). For the same molecule, the GI50 with OVCAR-8 is > 100 µM (inactive); in the assay on SF-295, 25.5 µM (inactive); in the assay with SN12C, > 100 µM (inactive); in the assay with SR it was 19.7 µM (inactive); in the assay on SW-620 it was 85.5 µM (inactive).

Take `N#CCC(=O)N1CCCCCCC1`: the GI50 was > 100 µM (inactive) in the assay with 786-0; > 100 µM (inactive) in the assay on A498; > 100 µM (inactive) with CCRF-CEM; > 100 µM (inactive) in the assay with EKVX; 16.8 µM in the assay with HCT-15; 28.2 µM (inactive) with HL-60. Moreover, the GI50 in the assay with HOP-62 was > 100 µM (inactive); in the assay on HT-29 it was 29.6 µM (inactive); with LOX IMVI it was > 100 µM (inactive); in the assay on Malme-3M it was > 100 µM (inactive); in the assay on SF-295, > 100 µM (inactive); in the assay with SN12C, > 100 µM (inactive). Also, the GI50 in the assay with SW-620 was 5.87 µM (inactive).

For `COc1ccc(/C=N/N=C(\N)NO)cc1O`, the GI50 was 18.5 µM (inactive) in the assay with 786-0; > 100 µM (inactive) in the assay with CCRF-CEM; 29.3 µM (inactive) in the assay with EKVX; 42.9 µM with HCT-15; 20.6 µM (inactive) with HOP-92; 40.9 µM (inactive) with HT-29. Besides, the GI50 in the assay with LOX IMVI is 26.7 µM (inactive); in the assay with MOLT-4 it was > 100 µM (inactive); in the assay on Malme-3M, 16.6 µM (inactive); in the assay on SN12C, 30.9 µM (inactive); in the assay on SW-620 it was 44.7 µM (inactive).

For `C/C(=N/Nc1ccc([N+](=O)[O-])cc1[N+](=O)[O-])C(CC(C(=O)Nc1ccccc1C)/C(C)=N\Nc1ccc([N+](=O)[O-])cc1[N+](=O)[O-])C(=O)Nc1ccccc1C` (centres undefined), the GI50 in the assay with 786-0 is 17.9 µM (inactive); in the assay with A498 it was 14.9 µM (inactive); in the assay with CCRF-CEM, > 100 µM (inactive); with EKVX, 18.2 µM (inactive); with HCT-15, 32.9 µM; with HL-60, 1.19 µM (inactive). Moreover, the GI50 with HOP-62 was 11.9 µM (inactive); in the assay with HOP-92 it was 7.08 µM (inactive); with HT-29, 14.8 µM (inactive); with LOX IMVI it was 14.4 µM (inactive); with Malme-3M it was 22.5 µM (inactive); in the assay with OVCAR-3, 7.06 µM (inactive). In addition, the GI50 in the assay on OVCAR-8 is 6 µM (inactive); in the assay with SF-295, 16.1 µM (inactive); with SN12C it was 6 µM (inactive); in the assay with SW-620, 18.8 µM (inactive).

In the case of `CCN(CC)Cc1cc(Nc2c3ccccc3nc3c2[nH]c2ccccc23)ccc1O`, the GI50 in the assay with 786-0 was 1.13 µM (inactive); in the assay with A498, 1.61 µM (inactive); in the assay on EKVX, 2.45 µM (inactive); in the assay with HCT-15, 0.853 µM; in the assay with HL-60 it was 2.16 µM (inactive); in the assay with HOP-62, 1.14 µM (inactive). Also, the GI50 in the assay on HOP-92 is 1.5 µM (inactive); with HT-29, 0.52 µM (active); in the assay with LOX IMVI, 1.22 µM (inactive); in the assay with MOLT-4 it was 0.508 µM (active); in the assay with Malme-3M, 1.9 µM (inactive); in the assay with OVCAR-8, 1.08 µM (active). Moreover, the GI50 is 1.37 µM (inactive) in the assay with SF-295, 1.67 µM (inactive) in the assay on SN12C, 0.337 µM (active) with SR and 0.912 µM (active) in the assay on SW-620.

Turning to `COC(=O)c1ccc(OCCn2nnc(C(=O)NN)c2C(=O)NN)cc1`, the GI50 was > 100 µM (inactive) with 786-0; > 100 µM (inactive) with CCRF-CEM; > 100 µM (inactive) with EKVX; above 100 µM in the assay on HCT-15; > 100 µM (inactive) in the assay on HL-60; > 100 µM (inactive) in the assay with HOP-62. Also, the GI50 with HOP-92, in the assay on HT-29, in the assay on LOX IMVI, with MOLT-4, with Malme-3M and with OVCAR-3 was > 100 µM (inactive) in each case. The GI50 in the assay with OVCAR-8, in the assay with SF-295, in the assay on SN12C and in the assay with SR was > 100 µM (inactive) in each case.

For `C=CCc1cc(-c2cc(CC=C)c(O)c(CNC)c2)cc(CNC)c1O`, the GI50 in the assay with 786-0 is 15.5 µM (inactive); with A498, 20.3 µM (inactive); in the assay on CCRF-CEM it was 7.4 µM (inactive); with HCT-15 it was 16.6 µM; in the assay on HL-60, 14.9 µM (inactive); with HOP-62 it was 18.8 µM (inactive). In addition, the GI50 in the assay with HOP-92 is 11.1 µM (inactive); in the assay with HT-29, 15.3 µM (inactive); in the assay on LOX IMVI it was 13.3 µM (inactive); in the assay with MOLT-4, 10.9 µM (inactive); in the assay with Malme-3M it was 18.7 µM (inactive); with OVCAR-3, 14.7 µM (inactive). The GI50 was 17.6 µM (inactive) in the assay with OVCAR-8, 16.9 µM (inactive) in the assay with SF-295, 17.1 µM (inactive) with SN12C and 17.3 µM (inactive) in the assay on SW-620.

With `CCCC(O)c1cn(-c2cccc(S(=O)(=O)O)c2)nn1` (centres undefined), the GI50 in the assay on 786-0 was > 100 µM (inactive); with A498, > 100 µM (inactive); in the assay with CCRF-CEM, > 100 µM (inactive); in the assay with EKVX, > 100 µM (inactive); with HCT-15 it was above 100 µM; with HL-60, > 100 µM (inactive). In addition, the GI50 in the assay with HOP-62, with HOP-92, with HT-29, with LOX IMVI, with MOLT-4 and with Malme-3M was > 100 µM (inactive) in each case. In addition, the GI50 with OVCAR-3, in the assay on OVCAR-8, in the assay on SF-295, in the assay with SN12C and with SW-620 was > 100 µM (inactive) in each case.

Take `CCOC(=O)C(=C=Cc1cccs1)C(=O)c1ccccc1`: the GI50 in the assay with 786-0 was 16 µM (inactive); in the assay with A498, 19.9 µM (inactive); with CCRF-CEM, 29.1 µM (inactive); with EKVX it was 16.7 µM (inactive); in the assay on HCT-15, 16.6 µM; in the assay on HL-60, 24.6 µM (inactive). Besides, the GI50 is 18.7 µM (inactive) in the assay with HOP-62; 5.15 µM (inactive) with HOP-92; 19.4 µM (inactive) in the assay with HT-29; 12.4 µM (inactive) in the assay on LOX IMVI; 19.2 µM (inactive) in the assay with MOLT-4; 15.7 µM (inactive) in the assay on Malme-3M. Also, the GI50 is 15.8 µM (inactive) in the assay with OVCAR-8; 17.8 µM (inactive) in the assay on SF-295; 15.8 µM (inactive) in the assay with SN12C; 19.9 µM (inactive) in the assay with SR; 18 µM (inactive) with SW-620.

Turning to `O=C(NC12CC3CC(CC(F)(C3)C1)C2)c1ccccc1`, the GI50 in the assay on 786-0, with A498, in the assay with CCRF-CEM, in the assay on EKVX, in the assay on HL-60 and in the assay on HOP-62 was > 100 µM (inactive) throughout. The GI50 in the assay with HOP-92, with HT-29, with LOX IMVI, in the assay on MOLT-4, in the assay on Malme-3M and in the assay with OVCAR-3 was > 100 µM (inactive) each time. The GI50 in the assay with OVCAR-8 and with SW-620 was > 100 µM (inactive) each time.
